Reference: US6329502A, “β-amino-α-hydroxycarboxylic acid derivatives and HIV protease inhibitors” (priority 1990, dated 2001)

Tests used:
[1] = target: T1, chemically synthesized HIV protease (Human immunodeficiency virus type 1 group M subtype B, UniProt P12497, C555A/C583A); assay type: biochemical; settings: for Residual Activity (%) 1 mM: inhibitor 1 mM
T1 construct: The HIV protease was chemically synthesized; made in house; host or cells: chemical peptide synthesis, no expression host
Method: The HIV protease was chemically synthesized by replacement of two cysteine residues in the natural sequence [Science, 230, 349 (1985)] with alanine residues. The reaction mixture contained 100 mM MES buffer (pH 5.5), 40 mM of substrate (Ac-[…]NH2 trifluoro-acetate), inhibitors at varying concentrations dissolved in DMSO and 9.2 μg of the HIV protease in a total volume of 15 μl. Incubation was carried out at 37° C. for 60 min. The reaction was started by the addition of the enzyme and terminated by 15 μl of acetonitrile. The amount of a fragment peptide produced was measured by reversed-phase HPLC analysis using an internal standerd. The HPLC condition was as followes.
Solvent A: 0.1% trifluoroacetic acid aqueous solution
Gradient: B was increased in 1.0%/min from 100% of A,

recombinant HIV protease = recombinant HIV protease (Human immunodeficiency virus type 1 group M subtype B, UniProt P12497); settings: inhibitor 5 μM (final concentration), 2.0 μg enzyme

Compound | Residual Activity (%) 1 mM [1] [%] | further results
CC(C)(C)OC(=O)N[C@@H](CC(N)=O)C(=O)N[C@@H](Cc1ccccc1)[C@@H](O)C(=O)NCC1CCCCC1 [Example 1, Boc-Asn-(2R,3S)-AHPBA-NH--CH2 --C6 H11] | 32.8 | 
CC(C)(C)OC(=O)N[C@@H](Cc1ccccc1)C(=O)N[C@@H](CC(N)=O)C(=O)N[C@@H](Cc1ccccc1)[C@@H](O)C(=O)NCC1CCCCC1 [Example 2, Boc-Phe-Asn-(2R,3S)-AHPBA-NH--CH2 --C6 H11] | 19.5 | 
CC(C)(C)OC(=O)N[C@@H](CC(N)=O)C(=O)N[C@@H](Cc1ccccc1)[C@H](O)C(=O)NCC1CCCCC1 [Example 3, Boc-Asn-(2S,3S)-AHPBA-NH--CH2 --C6 H11] | 52.9 | 
CC(C)(C)OC(=O)N[C@@H](Cc1ccccc1)C(=O)N[C@@H](CC(N)=O)C(=O)N[C@@H](Cc1ccccc1)[C@H](O)C(=O)NCC1CCCCC1 [Example 4, Boc-Phe-Asn-(2S,3S)-AHPBA-NH--CH2 --C6 H11] | 20.3 | 
CC(C)(C)OC(=O)N[C@@H](CO)C(=O)N[C@@H](Cc1ccccc1)[C@@H](O)C(=O)NCC1CCCCC1 [Example 5, Boc-Ser-(2R,3S)-AHPBA-NH--CH2 --C6 H11] | 82.9 | 
CC(C)(C)OC(=O)N[C@@H](Cc1ccccc1)C(=O)N[C@@H](CO)C(=O)N[C@@H](Cc1ccccc1)[C@@H](O)C(=O)NCC1CCCCC1 [Example 6, Boc-Phe-Ser-(2R,3S)-AHPBA-NH--CH2 --C6 H11] | 33.3 | 
CC(C)(C)OC(=O)N[C@@H](CO)C(=O)N[C@@H](Cc1ccccc1)[C@H](O)C(=O)NCC1CCCCC1 [Example 7, Boc-Ser-(2S,3S)-AHPBA-NH--CH2 --C6 H11] | 15.6 | 
CC(C)(C)OC(=O)N[C@@H](Cc1ccccc1)C(=O)N[C@@H](CO)C(=O)N[C@@H](Cc1ccccc1)[C@H](O)C(=O)NCC1CCCCC1 [Example 8, Boc-Phe-Ser(2S,3S)-AHPBA-NH--CH2 --C6 H11] | 47.0 | 
NC(=O)C[C@H](N)C(=O)N[C@@H](Cc1ccccc1)[C@@H](O)C(=O)NCC1CCCCC1 [Example 9, H-Asn-(2R,3S)-AHPBA-NH--CH2 --C6 H11] | 92.1 | 
NC(=O)C[C@H](NC(=O)[C@@H](N)Cc1ccccc1)C(=O)N[C@@H](Cc1ccccc1)[C@@H](O)C(=O)NCC1CCCCC1 [Example 10, H-Phe-Asn-(2R,3S)-AHPBA-NH--CH2 --C6 H11] | 43.4 | 
NC(=O)C[C@H](NC(=O)[C@@H](N)Cc1ccccc1)C(=O)N[C@@H](Cc1ccccc1)[C@H](O)C(=O)NCC1CCCCC1 [Example 11, H-Phe-Asn-(2S,3S)-AHPBA-NH--CH2 --C6 H11] | 16.4 | 
N[C@@H](CO)C(=O)N[C@@H](Cc1ccccc1)[C@@H](O)C(=O)NCC1CCCCC1 [Example 12, H-Ser-(2R,3S)-AHPBA-NH--CH2 --C6 H11] | 89.7 | 
N[C@@H](Cc1ccccc1)C(=O)N[C@@H](CO)C(=O)N[C@@H](Cc1ccccc1)[C@@H](O)C(=O)NCC1CCCCC1 [Example 13, H-Phe-Ser-(2R,3S)-AHPBA-NH--CH2 --C6 H11] | 58.9 | 
N[C@@H](CO)C(=O)N[C@@H](Cc1ccccc1)[C@H](O)C(=O)NCC1CCCCC1 [Example 14, H-Ser-(2S,3S)-AHPBA-NH--CH2 --C6 H11] | 95.5 | 
N[C@@H](Cc1ccccc1)C(=O)N[C@@H](CO)C(=O)N[C@@H](Cc1ccccc1)[C@H](O)C(=O)NCC1CCCCC1 [Example 15, H-Phe-Ser-(2S,3S)-AHPBA-NH--CH2 --C6 H11] | 23.8 | 
CC[C@H](C)[C@H](NC(=O)[C@@H]1CCCN1C(=O)[C@@H](O)[C@H](Cc1ccccc1)NC(=O)OC(C)(C)C)C(=O)OC1CCCCC1 [Example 28, Boc-(2S,3S)-AHPBA-Pro-Ile-O--C6 H11] | 63.9 | 
CC[C@H](C)[C@H](NC(=O)[C@@H]1CCCN1C(=O)[C@H](O)[C@H](Cc1ccccc1)NC(=O)OC(C)(C)C)C(=O)OC1CCCCC1 [Example 29, Boc-(2R,3S)-AHPBA-Pro-Ile-O--C6 H11] | 88.3 | 
CC[C@H](C)[C@H](NC(=O)[C@@H]1CCCN1C(=O)[C@@H](O)[C@H](Cc1ccccc1)NC(=O)OC(C)(C)C)C(=O)NCC1CCCCC1 [Example 30, Boc-(2S,3S)-AHPBA-Pro-Ile-NH--CH2 --C6 H11] | 23.4 | 
CC[C@H](C)[C@H](NC(=O)[C@@H]1CCCN1C(=O)[C@H](O)[C@H](Cc1ccccc1)NC(=O)OC(C)(C)C)C(=O)NCC1CCCCC1 [Example 31, Boc-(2R,3S)-AHPBA-Pro-Ile-NH--CH2 --C6 H11] | 47.4 | 
CC[C@H](C)[C@H](NC(=O)[C@@H]1CCCN1C(=O)[C@@H](O)[C@H](Cc1ccccc1)NC(=O)[C@H](CC(N)=O)NC(=O)OCc1ccccc1)C(=O)NCC1CCCCC1 [Example 32, Benzyloxycarbonyl-Asn-(2S,3S)-AHPBA-Pro-Ile-NH--CH2 --C6 H11] |  | Residual Activity (%) 5 μM ([1]; inhibitor 5 μM (final concentration)): 4.0%; residual enzymic activity (recombinant HIV protease): 11.0%
Boc-(2S,3S)-AHPBA-(cHexm)Gly-Ile-NH--CH2 --C6 H11 [Example 33] | 85.6 | 
H-Val-Val-(2R,3S)-AHPBA-(D)-Phe-(D)-Val-(D)-Val-NH2 [Example 23] | 28.3 | 
